Reference: PubChem BioAssay (NCI)
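Compound exposure: 48 hours, 5 concentrations, 96-well plates. TGI marks complete inhibition of growth.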

Experiments:
Assay in all cases: NCI anticancer screen, dose series, 48 h
[1] = system: HCT-15 colon
[2] = system: NCI-H23 lung
[3] = system: HOP-92 NSCLC
[4] = system: SF-539 CNS
[5] = system: OVCAR-5 ovarian
[6] = system: K-562 leukemia
[7] = system: UACC-62 melanoma
[8] = system: OVCAR-3 ovarian
[9] = system: SK-MEL-5 melanoma
[10] = system: CCRF-CEM leukemia
[11] = system: HCC-2998 colon
[12] = system: UACC-257 melanoma
[13] = system: HOP-62 NSCLC
[14] = system: NCI-H460 lung
[15] = system: SW-620 colon
[16] = system: SNB-75 CNS
[17] = system: OVCAR-8 ovarian
[18] = system: EKVX NSCLC
[19] = system: RXF 393 renal
[20] = system: IGROV1 ovarian

## N=c1c2c(=S)n(-c3ccccc3)c(=S)n(-c3ccccc3)c2nc(SCCCN2CCN(c3cccc(Cl)c3)CC2)n1-c1ccccc1
[1]
  TGI: > 100 µM
[2]
  TGI: > 100 µM
[3]
  TGI: > 100 µM
[4]
  TGI: > 100 µM
[5]
  TGI: > 100 µM
[6]
  TGI: > 100 µM
[7]
  TGI: > 100 µM
[8]
  TGI: > 100 µM
[9]
  TGI: > 100 µM
[10]
  TGI: > 100 µM
[11]
  TGI: > 100 µM
[12]
  TGI: > 100 µM
[13]
  TGI: > 100 µM
[14]
  TGI: > 100 µM
[15]
  TGI: > 100 µM
[16]
  TGI: > 100 µM
[17]
  TGI: > 100 µM
[18]
  TGI: > 100 µM
[19]
  TGI: > 100 µM
[20]
  TGI: > 100 µM

## CCCCCCCC/C=C\CCCCCCCC(=O)O
[1]
  TGI: 338 µM
[2]
  TGI: 146 µM
[3]
  TGI: > 5 µM
[4]
  TGI: 184 µM
[5]
  TGI: > 500 µM
[6]
  TGI: 219 µM
[7]
  TGI: 351 µM
[8]
  TGI: > 232 µM
[9]
  TGI: > 282 µM
[10]
  TGI: 197 µM
[11]
  TGI: > 500 µM
[12]
  TGI: 201 µM
[13]
  TGI: > 500 µM
[14]
  TGI: 192 µM
[15]
  TGI: 355 µM
[16]
  TGI: 29.6 µM
[17]
  TGI: 194 µM
[18]
  TGI: 164 µM
[19]
  TGI: 168 µM
[20]
  TGI: > 281 µM

## CCNc1nnc(-c2nsc3ccccc23)s1
[1]
  TGI: > 100 µM
[2]
  TGI: > 100 µM
[3]
  TGI: > 100 µM
[4]
  TGI: > 100 µM
[5]
  TGI: > 100 µM
[6]
  TGI: > 100 µM
[7]
  TGI: > 100 µM
[8]
  TGI: 57.6 µM
[9]
  TGI: > 100 µM
[10]
  TGI: > 100 µM
[11]
  TGI: > 100 µM
[12]
  TGI: > 100 µM
[13]
  TGI: > 100 µM
[14]
  TGI: 88.6 µM
[15]
  TGI: > 100 µM
[16]
  TGI: 36.1 µM
[17]
  TGI: > 100 µM
[18]
  TGI: > 100 µM
[19]
  TGI: > 100 µM
[20]
  TGI: > 100 µM

## O=C1C=CC2=[N+]([O-])C(c3ccccc3)(c3ccccc3)C(=Nc3ccccc3)C2=C1
[1]
  TGI: 6.34 µM
[2]
  TGI: 5.64 µM
[3]
  TGI: 3.48 µM
[4]
  TGI: 19.5 µM
[5]
  TGI: 30 µM
[6]
  TGI: 4.34 µM
[7]
  TGI: 4.51 µM
[8]
  TGI: 3.37 µM
[9]
  TGI: 27.2 µM
[10]
  TGI: 2.18 µM
[11]
  TGI: 19.6 µM
[12]
  TGI: 4.11 µM
[13]
  TGI: 29.3 µM
[14]
  TGI: 34.4 µM
[15]
  TGI: 3.65 µM
[16]
  TGI: 8.74 µM
[17]
  TGI: 3.39 µM
[18]
  TGI: 14.1 µM
[19]
  TGI: 3.04 µM
[20]
  TGI: 3.45 µM

## Cc1ccc([N+](=O)[O-])cc1S(=O)(=O)Nc1ccc(C2=NNC(c3ccccc3O)C2)cc1 (stereo not given)
[1]
  TGI: 97.6 µM
[2]
  TGI: 67.7 µM
[3]
  TGI: > 100 µM
[4]
  TGI: > 100 µM
[5]
  TGI: > 100 µM
[6]
  TGI: > 100 µM
[7]
  TGI: 41.6 µM
[8]
  TGI: 43.7 µM
[9]
  TGI: 58.6 µM
[10]
  TGI: > 100 µM
[11]
  TGI: > 100 µM
[12]
  TGI: > 100 µM
[13]
  TGI: 57.7 µM
[14]
  TGI: 80.6 µM
[15]
  TGI: > 100 µM
[16]
  TGI: > 100 µM
[17]
  TGI: > 100 µM
[18]
  TGI: 56.9 µM
[19]
  TGI: 40.5 µM
[20]
  TGI: > 100 µM

## CC(=O)Oc1ccc2c(c1)oc1c3ccc(OC(C)=O)cc3n(C)c(=O)c21
[1]
  TGI: > 100 µM
[2]
  TGI: > 100 µM
[3]
  TGI: > 100 µM
[4]
  TGI: > 100 µM
[5]
  TGI: > 100 µM
[6]
  TGI: > 100 µM
[7]
  TGI: > 100 µM
[8]
  TGI: > 100 µM
[9]
  TGI: 16.7 µM
[10]
  TGI: > 100 µM
[11]
  TGI: 57.1 µM
[12]
  TGI: > 100 µM
[13]
  TGI: > 100 µM
[14]
  TGI: > 100 µM
[15]
  TGI: > 100 µM
[16]
  TGI: 4.16 µM
[17]
  TGI: 79.3 µM
[18]
  TGI: 70.8 µM
[19]
  TGI: > 100 µM
[20]
  TGI: > 100 µM
